In ChEMBL document CHEMBL1141244, “Sulfonamide chalcone as a new class of alpha-glucosidase inhibitors” (Bioorg Med Chem Lett, 2005):
Calls of active or inactive are those of the source. The calls are words filed in the database; no cut-off is given here.

Columns and labels:
Alpha-amylase = Alpha-amylase (Bacillus licheniformis, UniProt P06278); experiment: Inhibitory activity against Bacillus licheniformis alpha amylase
Beta-amylase = Beta-amylase (Hordeum vulgare, UniProt P16098); experiment: Inhibitory activity against barley beta amylase
[1] = Inhibitory activity against baker's yeast alpha glucosidase; design: species or system Saccharomyces cerevisiae
Saccharomyces cerevisiae = experiment: Inhibitory activity against baker's yeast alpha glucosidase at 200 uM
[2] = biological target: Beta-amylase (Hordeum vulgare) (UniProt P16098); experiment: Inhibitory activity against barley beta amylase at 200 uM
[3] = biological target: Alpha-amylase (Bacillus licheniformis) (UniProt P06278); experiment: Inhibitory activity against Bacillus licheniformis alpha amylase at 200 uM
Alpha-amylase (Bacillus licheniformis), sequence (P06278 whole entry): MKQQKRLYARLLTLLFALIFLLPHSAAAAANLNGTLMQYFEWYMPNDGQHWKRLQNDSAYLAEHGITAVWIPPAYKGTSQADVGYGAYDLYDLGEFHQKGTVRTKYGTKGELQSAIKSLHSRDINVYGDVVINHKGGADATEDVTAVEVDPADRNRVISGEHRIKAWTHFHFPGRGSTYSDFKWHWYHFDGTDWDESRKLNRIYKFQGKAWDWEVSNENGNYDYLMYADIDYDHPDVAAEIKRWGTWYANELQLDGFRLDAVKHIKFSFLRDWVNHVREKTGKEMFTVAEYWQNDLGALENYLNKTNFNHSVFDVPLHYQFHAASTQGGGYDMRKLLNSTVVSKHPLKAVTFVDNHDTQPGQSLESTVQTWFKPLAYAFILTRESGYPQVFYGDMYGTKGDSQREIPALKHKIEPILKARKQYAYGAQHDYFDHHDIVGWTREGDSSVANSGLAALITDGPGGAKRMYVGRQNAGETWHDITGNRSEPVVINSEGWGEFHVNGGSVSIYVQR

Beta-amylase, sequence (P16098 whole entry): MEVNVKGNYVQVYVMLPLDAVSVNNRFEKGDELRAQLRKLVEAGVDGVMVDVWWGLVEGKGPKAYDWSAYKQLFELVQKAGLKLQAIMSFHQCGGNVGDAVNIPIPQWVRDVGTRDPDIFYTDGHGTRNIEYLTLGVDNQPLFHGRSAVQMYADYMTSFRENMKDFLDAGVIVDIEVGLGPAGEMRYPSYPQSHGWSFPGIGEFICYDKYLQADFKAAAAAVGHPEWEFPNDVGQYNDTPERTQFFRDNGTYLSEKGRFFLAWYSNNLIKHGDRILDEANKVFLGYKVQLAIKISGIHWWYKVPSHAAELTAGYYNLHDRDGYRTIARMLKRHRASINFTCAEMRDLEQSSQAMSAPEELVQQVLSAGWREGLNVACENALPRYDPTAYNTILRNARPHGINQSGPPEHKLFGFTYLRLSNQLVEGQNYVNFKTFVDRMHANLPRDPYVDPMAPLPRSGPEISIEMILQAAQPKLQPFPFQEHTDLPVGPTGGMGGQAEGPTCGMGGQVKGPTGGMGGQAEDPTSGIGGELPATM
Beta-amylase (Hordeum vulgare), sequence (P16098 whole entry): as above
Alpha-amylase, sequence (P06278 whole entry): as the sequence (P06278 whole entry) above

SMILES | IC50 [1] | Activity (Saccharomyces cerevisiae) | Activity [2] | Activity [3] | also measured
Cc1ccc(S(=O)(=O)Nc2ccc(C(=O)/C=C/c3ccc(O)cc3)cc2)cc1 | 0.98 µM |  |  |  | IC50 (Alpha-amylase; read-out: IC50): 87.8 µM; IC50 (Beta-amylase; read-out: IC50): 247 µM; Ki [1]: 0.58 µM
O=C(/C=C/c1cc(O)ccc1O)c1ccccc1 |  | inactive | inactive | inactive | 
Cc1ccc(S(=O)(=O)Nc2cccc(C(=O)/C=C/c3ccc(O)c(O)c3)c2)cc1 | 15.6 µM |  |  |  | IC50 (Alpha-amylase; read-out: IC50): 16.8 µM; IC50 (Beta-amylase; read-out: IC50): 24.8 µM; Ki [1]: 9.25 µM
O=C(/C=C/c1cccc(O)c1)c1ccc(O)cc1 |  | inactive | inactive | inactive | 
Oc1cc(O)c2c(c1)O[C@@H](c1ccc(O)c(O)c1)[C@H](O)C2 |  | inactive | inactive | inactive | 
O=c1c(O)c(-c2cc(O)c(O)c(O)c2)oc2cc(O)cc(O)c12 |  | inactive | inactive | inactive | 
Cc1ccc(S(=O)(=O)Nc2cccc(C(=O)/C=C/c3ccc(O)cc3)c2)cc1 | 12.4 µM |  |  |  | IC50 (Alpha-amylase; read-out: IC50): 37.3 µM; IC50 (Beta-amylase; read-out: IC50): 201 µM; Ki [1]: 7.38 µM
C[C@H]1O[C@H](O[C@H]2[C@H](O)[C@@H](O)[C@@H](O[C@H]3[C@H](O)[C@@H](O)C(O)O[C@@H]3CO)O[C@@H]2CO)[C@H](O)[C@@H](O)[C@@H]1N[C@H]1C=C(CO)[C@@H](O)[C@H](O)[C@H]1O (stereo not given in full) [ACARBOSE] | 60.8 µM |  |  |  | 
O=C(/C=C/c1ccc(O)cc1)c1ccc(O)cc1 |  | inactive | inactive | inactive | 
Oc1cc(O)c2c(c1)O[C@H](c1ccc(O)c(O)c1)[C@@H](O)C2 |  | inactive | inactive | inactive | 
Cc1ccc(S(=O)(=O)Nc2ccc(C(=O)/C=C/c3ccc(O)c(O)c3)cc2)cc1 | 0.4 µM |  |  |  | IC50 (Alpha-amylase; read-out: IC50): 194 µM; IC50 (Beta-amylase; read-out: IC50): 65 µM; Ki [1]: 0.24 µM
O=C(/C=C/c1ccccc1O)c1ccccc1 |  | inactive | inactive | inactive | 
O=C(/C=C/c1cccc(O)c1O)c1ccccc1 |  | inactive | inactive | inactive | 
Nc1ccc(C(=O)/C=C/c2ccc(O)c(O)c2)cc1 | 62.1 µM |  |  |  | IC50 (Alpha-amylase): Not Active; IC50 (Beta-amylase; read-out: IC50): 127 µM
Nc1cccc(C(=O)/C=C/c2ccc(O)c(O)c2)c1 | > 200 µM |  |  |  | IC50 (Alpha-amylase): Not Active; IC50 (Beta-amylase): Not Active
O=C(/C=C/c1ccc(O)cc1)c1ccccc1 |  | inactive | inactive | inactive | 
O=c1c(O)c(-c2ccc(O)c(O)c2)oc2cc(O)cc(O)c12 |  | inactive | inactive | inactive | 
O=C(/C=C/c1ccc(O)c(O)c1)c1ccccc1 |  | inactive | inactive | inactive | 
Nc1cccc(C(=O)/C=C/c2ccc(O)cc2)c1 | > 200 µM |  |  |  | IC50 (Alpha-amylase): Not Active; IC50 (Beta-amylase; read-out: IC50): 206 µM
Nc1ccc(C(=O)/C=C/c2ccc(O)cc2)cc1 | 41 µM |  |  |  | IC50 (Alpha-amylase; read-out: IC50): 269 µM; IC50 (Beta-amylase): Not Active
O=C(/C=C/c1ccc(O)cc1O)c1ccccc1 |  | inactive | inactive | inactive | 
